Assays:
Rattus norvegicus [1] = organism: Rattus norvegicus; test: Negative logarithm of the molar concentration required to relax rat aorta precontracted with 30 mM KCI by 50% of IA; assay type: functional, organism-based
Rattus norvegicus [2] = organism: Rattus norvegicus; test: Intrinsic vasorelaxant activity tested in rat aorta; assay type: functional

Row | EC50 (Rattus norvegicus [1]) | SMILES | Intrinsic activity (Rattus norvegicus [2])
1 | 2.24 nM | N#CCCNC(=O)C1=CC(CF)(CF)Oc2ccc([N+](=O)[O-])cc21 | 72.3%
2 | 0.302 nM | C/N=C(/S)C1=CC(C)(C(F)(F)F)Oc2ccc([N+](=O)[O-])cc21 (configuration not stated) | 62.5%
3 | 0.363 nM | CC1(C(F)(F)F)C=C(/C(S)=N\CCC#N)c2cc([N+](=O)[O-])ccc2O1 (configuration not stated) | 69.7%
4 | 0.372 nM | CC1(C)C=C(/C(S)=N\CCC#N)c2cc([N+](=O)[O-])ccc2O1 | 78.5%
5 |  | CC1(C)Oc2ccc(C#N)cc2[C@@H](N2CCCC2=O)[C@@H]1O [CROMAKALIM] | 74.7%
6 | 2.82 nM | CC1(C)C=C(C(=O)NCCC#N)c2cc([N+](=O)[O-])ccc2O1 | 73.1%
7 | 1.86 nM | CC1(CF)C=C(/C(S)=N\CCC#N)c2cc([N+](=O)[O-])ccc2O1 (configuration not stated) | 59.6%
8 | 0.0251 nM | C/N=C(/S)C1=CC2(CCC2)Oc2ccc([N+](=O)[O-])cc21 | 
9 | 5.13 nM | CNC(=O)C1=CC(CF)(CF)Oc2ccc([N+](=O)[O-])cc21 | 70.7%
10 | 0.692 nM | CC1(C(F)(F)F)C=C(C(=O)NCCC#N)c2cc([N+](=O)[O-])ccc2O1 (configuration not stated) | 70.6%
11 | 0.479 nM | C/N=C(/S)C1=CC(CF)(CF)Oc2ccc([N+](=O)[O-])cc21 | 74.5%
12 |  | CC(N/C(=N\C#N)Nc1ccncc1)C(C)(C)C (configuration not stated) [PINACIDIL ANHYDROUS] | 91.9%
13 | 0.631 nM | C/N=C(/S)C1=CC(C(F)(F)F)(C(F)(F)F)Oc2ccc([N+](=O)[O-])cc21 | 68%
14 | 8.91 nM | CNC(=O)C1=CC(C)(CF)Oc2ccc([N+](=O)[O-])cc21 (configuration not stated) | 66%
15 | 0.437 nM | N#CCC/N=C(/S)C1=CC(C(F)(F)F)(C(F)(F)F)Oc2ccc([N+](=O)[O-])cc21 | 74.8%
16 | 1.62 nM | C/N=C(/S)C1=CC(C)(CF)Oc2ccc([N+](=O)[O-])cc21 (configuration not stated) | 77.1%
17 | 1.48 nM | CNC(=O)C1=CC(C(F)(F)F)(C(F)(F)F)Oc2ccc([N+](=O)[O-])cc21 | 57.9%
18 |  | CNC(=O)C1=CC(C)(C)Oc2ccc([N+](=O)[O-])cc21 | 61%
19 | 3.98 nM | CC1(CF)C=C(C(=O)NCCC#N)c2cc([N+](=O)[O-])ccc2O1 (configuration not stated) | 71%
20 | 0.49 nM | N#CCCNC(=O)C1=CC(C(F)(F)F)(C(F)(F)F)Oc2ccc([N+](=O)[O-])cc21 | 64.1%
21 |  | C/N=C(/S)C1=CC(C)(C)Oc2ccc([N+](=O)[O-])cc21 | 63.5%
22 | 0.141 nM | N#CCC/N=C(\S)C1=CC(CF)(CF)Oc2ccc([N+](=O)[O-])cc21 | 72.5%
23 | 2.69 nM | CNC(=O)C1=CC(C)(C(F)(F)F)Oc2ccc([N+](=O)[O-])cc21 (configuration not stated) | 61.7%
24 | 0.0209 nM | C/N=C(/S)C1=CC2(CCCC2)Oc2ccc([N+](=O)[O-])cc21 | 

Reference: ChEMBL document CHEMBL1128661, “Vasorelaxant activity of 2-fluoroalkyl-6-nitro-2H-1-benzopyran-4-carbothioamide and -carboxamide K+ channel openers” (Bioorg Med Chem Lett, 1995)
